Results from PubChem BioAssay (NCI).
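Following 48 hours of exposure in 96-well plates, responses at five concentrations were used to interpolate endpoints linearly. GI50: concentration for 50% inhibition of growth. TGI marks complete inhibition of growth.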

Tests used:
Experiment in all cases: inhibition of tumour cell growth, NCI panel, 48 h
NCI-H226 lung = test system: NCI-H226 lung
786-0 renal = test system: 786-0 renal
K-562 leukemia = test system: K-562 leukemia
LOX IMVI melanoma = test system: LOX IMVI melanoma
U251 CNS = test system: U251 CNS
HOP-62 NSCLC = test system: HOP-62 NSCLC
SK-MEL-2 melanoma = test system: SK-MEL-2 melanoma
BT-549 breast = test system: BT-549 breast
A549 NSCLC = test system: A549 NSCLC
OVCAR-8 ovarian = test system: OVCAR-8 ovarian
RPMI-8226 leukemia = test system: RPMI-8226 leukemia
NCI/ADR-RES ovarian = test system: NCI/ADR-RES ovarian
UACC-62 melanoma = test system: UACC-62 melanoma
EKVX NSCLC = test system: EKVX NSCLC
RXF 393 renal = test system: RXF 393 renal
SNB-75 CNS = test system: SNB-75 CNS
HL-60(TB) leukemia = test system: HL-60(TB) leukemia
SK-MEL-28 melanoma = test system: SK-MEL-28 melanoma
DU-145 prostate = test system: DU-145 prostate
A498 renal = test system: A498 renal
ACHN renal = test system: ACHN renal
T-47D breast = test system: T-47D breast
NCI-H460 lung = test system: NCI-H460 lung
UACC-257 melanoma = test system: UACC-257 melanoma
KM12 colon = test system: KM12 colon
PC-3 prostate = test system: PC-3 prostate
CAKI-1 renal = test system: CAKI-1 renal
SF-539 CNS = test system: SF-539 CNS
MOLT-4 leukemia = test system: MOLT-4 leukemia
HCT-15 colon = test system: HCT-15 colon
SF-295 CNS = test system: SF-295 CNS
MDA-MB-435 = test system: MDA-MB-435
SR leukemia = test system: SR leukemia
MCF7 breast = test system: MCF7 breast
SW-620 colon = test system: SW-620 colon
OVCAR-5 ovarian = test system: OVCAR-5 ovarian
TK-10 renal = test system: TK-10 renal
HS 578T breast = test system: HS 578T breast
SNB-19 CNS = test system: SNB-19 CNS
SF-268 CNS = test system: SF-268 CNS
IGROV1 ovarian = test system: IGROV1 ovarian
OVCAR-3 ovarian = test system: OVCAR-3 ovarian
OVCAR-4 ovarian = test system: OVCAR-4 ovarian
SN12C renal = test system: SN12C renal
UO-31 renal = test system: UO-31 renal

Compound: CN1CCN(Cc2ccc(NC(=O)c3[nH]ncc3Nc3ncnc4sccc34)cc2)CC1
- GI50 (NCI-H226 lung): 169 nM
- TGI (NCI-H226 lung): > 100000 nM
- GI50 (786-0 renal): 351 nM
- TGI (786-0 renal): > 100000 nM
- GI50 (K-562 leukemia): 235 nM
- TGI (K-562 leukemia): > 100000 nM
- GI50 (LOX IMVI melanoma): 213 nM
- TGI (LOX IMVI melanoma): 1070 nM
- GI50 (U251 CNS): 242 nM
- TGI (U251 CNS): > 100000 nM
- GI50 (HOP-62 NSCLC): 437 nM
- TGI (HOP-62 NSCLC): > 100000 nM
- GI50 (SK-MEL-2 melanoma): 368 nM
- TGI (SK-MEL-2 melanoma): 2260 nM
- GI50 (BT-549 breast): 1230 nM
- TGI (BT-549 breast): 5560 nM
- GI50 (A549 NSCLC): 263 nM
- TGI (A549 NSCLC): > 100000 nM
- GI50 (OVCAR-8 ovarian): 413 nM
- TGI (OVCAR-8 ovarian): > 100000 nM
- GI50 (RPMI-8226 leukemia): 360 nM
- TGI (RPMI-8226 leukemia): 1380 nM
- GI50 (NCI/ADR-RES ovarian): 1070 nM
- TGI (NCI/ADR-RES ovarian): > 100000 nM
- GI50 (UACC-62 melanoma): 915 nM
- TGI (UACC-62 melanoma): > 100000 nM
- GI50 (EKVX NSCLC): 425 nM
- TGI (EKVX NSCLC): 3530 nM
- GI50 (RXF 393 renal): 171 nM
- TGI (RXF 393 renal): 535 nM
- GI50 (SNB-75 CNS): 23 nM
- TGI (SNB-75 CNS): 2300 nM
- GI50 (HL-60(TB) leukemia): 334 nM
- TGI (HL-60(TB) leukemia): 1070 nM
- GI50 (SK-MEL-28 melanoma): 857 nM
- TGI (SK-MEL-28 melanoma): > 100000 nM
- GI50 (DU-145 prostate): 350 nM
- TGI (DU-145 prostate): > 100000 nM
- GI50 (A498 renal): 17.2 nM
- TGI (A498 renal): 1120 nM
- GI50 (ACHN renal): 223 nM
- TGI (ACHN renal): 791 nM
- GI50 (T-47D breast): 699 nM
- TGI (T-47D breast): > 100000 nM
- GI50 (NCI-H460 lung): 284 nM
- TGI (NCI-H460 lung): > 100000 nM
- GI50 (UACC-257 melanoma): 2120 nM
- TGI (UACC-257 melanoma): > 100000 nM
- GI50 (KM12 colon): 297 nM
- TGI (KM12 colon): > 100000 nM
- GI50 (PC-3 prostate): 394 nM
- TGI (PC-3 prostate): > 100000 nM
- GI50 (CAKI-1 renal): 563 nM
- TGI (CAKI-1 renal): > 100000 nM
- GI50 (SF-539 CNS): 127 nM
- TGI (SF-539 CNS): 1560 nM
- GI50 (MOLT-4 leukemia): 207 nM
- TGI (MOLT-4 leukemia): 853 nM
- GI50 (HCT-15 colon): 254 nM
- TGI (HCT-15 colon): > 100000 nM
- GI50 (SF-295 CNS): 325 nM
- TGI (SF-295 CNS): > 100000 nM
- GI50 (MDA-MB-435): 394 nM
- TGI (MDA-MB-435): > 100000 nM
- GI50 (SR leukemia): 219 nM
- TGI (SR leukemia): 730 nM
- GI50 (MCF7 breast): 126 nM
- TGI (MCF7 breast): > 100000 nM
- GI50 (SW-620 colon): 315 nM
- TGI (SW-620 colon): > 100000 nM
- GI50 (OVCAR-5 ovarian): 508 nM
- TGI (OVCAR-5 ovarian): > 100000 nM
- GI50 (TK-10 renal): 2160 nM
- TGI (TK-10 renal): 19600 nM
- GI50 (HS 578T breast): 60.4 nM
- TGI (HS 578T breast): 2930 nM
- GI50 (SNB-19 CNS): 335 nM
- TGI (SNB-19 CNS): > 100000 nM
- GI50 (SF-268 CNS): 446 nM
- TGI (SF-268 CNS): 3730 nM
- GI50 (IGROV1 ovarian): 396 nM
- TGI (IGROV1 ovarian): > 100000 nM
- GI50 (OVCAR-3 ovarian): 306 nM
- TGI (OVCAR-3 ovarian): 2540 nM
- GI50 (OVCAR-4 ovarian): 326 nM
- TGI (OVCAR-4 ovarian): 3920 nM
- GI50 (SN12C renal): 361 nM
- TGI (SN12C renal): > 100000 nM
- GI50 (UO-31 renal): 357 nM
- TGI (UO-31 renal): 3540 nM
